According to ChEMBL document CHEMBL4190397, “Design and Synthesis of Novel and Selective Glycine Transporter-1 (GlyT1) Inhibitors with Memory Enhancing Properties” (J Med Chem, 2018):

Key:
[1] = target: T1, Sodium- and chloride-dependent glycine transporter 1 (Homo sapiens, UniProt P48067); experiment: Inhibition of recombinant human GlyT1c expressed in HEK293 cells assessed as reduction in [14C]glycine uptake after 2 hrs by microbeta scintillation counting method; type: cell-based
T1 sequence (P48067 whole entry): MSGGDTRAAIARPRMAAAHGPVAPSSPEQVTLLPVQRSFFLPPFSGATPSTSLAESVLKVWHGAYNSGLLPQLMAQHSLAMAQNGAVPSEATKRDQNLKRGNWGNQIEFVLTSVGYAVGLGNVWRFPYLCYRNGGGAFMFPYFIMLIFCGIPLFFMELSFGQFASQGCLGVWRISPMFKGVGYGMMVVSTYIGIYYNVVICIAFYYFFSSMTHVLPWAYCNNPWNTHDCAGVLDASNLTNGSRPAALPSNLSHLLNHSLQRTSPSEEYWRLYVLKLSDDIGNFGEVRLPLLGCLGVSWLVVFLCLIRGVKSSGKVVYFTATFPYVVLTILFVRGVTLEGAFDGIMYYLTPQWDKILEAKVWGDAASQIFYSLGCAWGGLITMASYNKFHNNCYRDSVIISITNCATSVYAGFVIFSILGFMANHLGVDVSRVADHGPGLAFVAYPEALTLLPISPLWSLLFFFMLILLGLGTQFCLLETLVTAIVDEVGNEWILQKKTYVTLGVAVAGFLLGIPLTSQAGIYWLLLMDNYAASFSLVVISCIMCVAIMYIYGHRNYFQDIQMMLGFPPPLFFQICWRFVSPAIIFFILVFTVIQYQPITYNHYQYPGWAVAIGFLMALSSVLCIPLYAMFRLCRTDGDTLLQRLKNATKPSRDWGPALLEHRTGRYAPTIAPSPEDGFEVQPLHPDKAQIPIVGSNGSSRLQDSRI

[2] = target: T2, Sodium- and chloride-dependent glycine transporter 2 (Homo sapiens, UniProt Q9Y345); experiment: Inhibition of recombinant human GlyT2 expressed in HEK293 cells assessed as reduction in [14C]glycine uptake after 2 hrs by microbeta scintillation counting method; type: cell-based
T2 sequence (Q9Y345 whole entry): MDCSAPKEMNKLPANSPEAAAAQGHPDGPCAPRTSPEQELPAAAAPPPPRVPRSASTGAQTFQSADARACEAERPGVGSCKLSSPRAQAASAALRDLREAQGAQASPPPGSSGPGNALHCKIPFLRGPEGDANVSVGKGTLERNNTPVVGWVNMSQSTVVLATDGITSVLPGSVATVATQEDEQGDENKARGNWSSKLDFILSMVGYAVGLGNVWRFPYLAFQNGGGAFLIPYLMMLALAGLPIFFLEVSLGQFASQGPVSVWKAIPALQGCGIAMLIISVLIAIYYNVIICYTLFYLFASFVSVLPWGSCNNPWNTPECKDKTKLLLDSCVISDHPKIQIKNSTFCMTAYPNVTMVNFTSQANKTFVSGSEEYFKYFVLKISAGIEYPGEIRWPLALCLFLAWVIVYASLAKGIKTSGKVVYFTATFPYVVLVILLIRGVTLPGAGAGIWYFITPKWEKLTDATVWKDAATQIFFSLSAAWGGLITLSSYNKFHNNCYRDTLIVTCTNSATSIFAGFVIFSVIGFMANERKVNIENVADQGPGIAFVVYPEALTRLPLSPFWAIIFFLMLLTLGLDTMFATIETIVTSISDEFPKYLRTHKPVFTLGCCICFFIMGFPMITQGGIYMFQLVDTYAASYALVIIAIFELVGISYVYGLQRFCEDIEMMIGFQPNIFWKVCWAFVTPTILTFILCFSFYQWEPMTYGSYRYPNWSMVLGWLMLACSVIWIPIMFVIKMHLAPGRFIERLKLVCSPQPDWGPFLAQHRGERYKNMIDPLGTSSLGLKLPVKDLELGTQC

[3] = target: T3, Sodium- and chloride-dependent glycine transporter 1 (Rattus norvegicus, UniProt P28572); experiment: Inhibition of GlyT1 in primary rat cortical neurons assessed as reduction in [14C]glycine uptake after 2 hrs by microbeta scintillation counting method
T3 sequence (P28572 whole entry): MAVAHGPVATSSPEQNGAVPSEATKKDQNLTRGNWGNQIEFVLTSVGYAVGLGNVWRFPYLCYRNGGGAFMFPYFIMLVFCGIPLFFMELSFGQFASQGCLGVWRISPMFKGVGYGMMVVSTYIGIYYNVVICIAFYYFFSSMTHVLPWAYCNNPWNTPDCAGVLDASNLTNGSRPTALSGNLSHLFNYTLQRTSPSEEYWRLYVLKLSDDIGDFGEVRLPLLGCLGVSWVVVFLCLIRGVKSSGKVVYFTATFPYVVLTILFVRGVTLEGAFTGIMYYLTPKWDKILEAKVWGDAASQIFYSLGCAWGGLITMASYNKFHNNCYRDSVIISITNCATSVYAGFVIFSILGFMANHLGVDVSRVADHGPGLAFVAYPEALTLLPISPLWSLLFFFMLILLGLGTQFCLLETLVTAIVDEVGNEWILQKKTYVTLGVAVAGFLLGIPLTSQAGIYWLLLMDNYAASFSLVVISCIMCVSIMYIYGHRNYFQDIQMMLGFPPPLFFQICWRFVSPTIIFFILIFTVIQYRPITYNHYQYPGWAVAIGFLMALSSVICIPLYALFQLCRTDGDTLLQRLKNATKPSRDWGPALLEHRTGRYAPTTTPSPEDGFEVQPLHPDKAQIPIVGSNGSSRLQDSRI

Cytochrome P450 1A2 = target: T4, Cytochrome P450 1A2 (Homo sapiens, UniProt P05177); experiment: Inhibition of CYP1A2 in human liver microsomes using phenacetin as substrate measured after 10 mins in presence of NADPH by LC-MS/MS analysis
T4 sequence (P05177 whole entry): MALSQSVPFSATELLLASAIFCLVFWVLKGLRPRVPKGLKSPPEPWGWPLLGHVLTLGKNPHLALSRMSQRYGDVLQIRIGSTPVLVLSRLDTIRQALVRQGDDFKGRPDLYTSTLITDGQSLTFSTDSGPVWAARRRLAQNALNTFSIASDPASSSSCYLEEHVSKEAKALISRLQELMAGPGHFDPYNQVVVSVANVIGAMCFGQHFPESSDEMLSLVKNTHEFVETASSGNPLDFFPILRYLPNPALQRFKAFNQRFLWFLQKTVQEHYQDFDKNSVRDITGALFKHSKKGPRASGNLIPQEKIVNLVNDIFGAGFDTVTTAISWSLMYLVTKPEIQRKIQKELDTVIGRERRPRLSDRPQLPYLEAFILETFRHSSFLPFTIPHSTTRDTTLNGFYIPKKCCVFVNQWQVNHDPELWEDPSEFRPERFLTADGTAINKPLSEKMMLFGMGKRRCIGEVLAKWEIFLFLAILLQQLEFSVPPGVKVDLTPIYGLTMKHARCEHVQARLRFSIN

[4] = Intrinsic clearance in human liver microsomes at 1 uM assessed per mg protein at 37 degC up to 60 mins in presence of NADPH by HPLC-MS analysis; type: ADME, microsome; conditions: read-out: CLH
[5] = Apparent permeability from basolateral to apical side in MDCK-MDR1 cells monolayer at 5 uM after 60 mins by LC-MS/MS analysis; conditions: dog
Cytochrome P450 2C9 = Cytochrome P450 2C9 (Homo sapiens, UniProt P11712); experiment: Inhibition of CYP2C9 in human liver microsomes using diclofenac as substrate measured after 10 mins in presence of NADPH by LC-MS/MS analysis
Chain of Cytochrome P450 2C9 (P11712 whole entry): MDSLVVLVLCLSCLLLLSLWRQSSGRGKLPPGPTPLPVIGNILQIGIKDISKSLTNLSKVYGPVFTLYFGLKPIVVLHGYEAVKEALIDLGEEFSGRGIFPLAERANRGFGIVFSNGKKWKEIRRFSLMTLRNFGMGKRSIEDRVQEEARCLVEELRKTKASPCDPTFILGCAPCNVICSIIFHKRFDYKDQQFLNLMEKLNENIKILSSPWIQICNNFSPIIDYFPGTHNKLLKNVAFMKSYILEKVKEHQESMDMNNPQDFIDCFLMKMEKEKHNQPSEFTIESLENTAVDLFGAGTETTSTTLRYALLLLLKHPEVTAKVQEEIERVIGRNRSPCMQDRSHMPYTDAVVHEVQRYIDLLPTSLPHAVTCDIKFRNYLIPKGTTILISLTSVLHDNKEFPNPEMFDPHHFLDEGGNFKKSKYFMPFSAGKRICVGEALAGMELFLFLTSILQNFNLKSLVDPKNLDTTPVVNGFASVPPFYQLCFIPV

[6] = target: Voltage-gated inwardly rectifying potassium channel KCNH2 (Homo sapiens, UniProt Q12809); experiment: Inhibition of human ERG expressed in CHO cells at 10 nM to 10 uM at holding potential of -80 mV measured after 5 mins by QPatch automated patch clamp electrophysiology method
Chain of Voltage-gated inwardly rectifying potassium channel KCNH2 (Q12809 whole entry): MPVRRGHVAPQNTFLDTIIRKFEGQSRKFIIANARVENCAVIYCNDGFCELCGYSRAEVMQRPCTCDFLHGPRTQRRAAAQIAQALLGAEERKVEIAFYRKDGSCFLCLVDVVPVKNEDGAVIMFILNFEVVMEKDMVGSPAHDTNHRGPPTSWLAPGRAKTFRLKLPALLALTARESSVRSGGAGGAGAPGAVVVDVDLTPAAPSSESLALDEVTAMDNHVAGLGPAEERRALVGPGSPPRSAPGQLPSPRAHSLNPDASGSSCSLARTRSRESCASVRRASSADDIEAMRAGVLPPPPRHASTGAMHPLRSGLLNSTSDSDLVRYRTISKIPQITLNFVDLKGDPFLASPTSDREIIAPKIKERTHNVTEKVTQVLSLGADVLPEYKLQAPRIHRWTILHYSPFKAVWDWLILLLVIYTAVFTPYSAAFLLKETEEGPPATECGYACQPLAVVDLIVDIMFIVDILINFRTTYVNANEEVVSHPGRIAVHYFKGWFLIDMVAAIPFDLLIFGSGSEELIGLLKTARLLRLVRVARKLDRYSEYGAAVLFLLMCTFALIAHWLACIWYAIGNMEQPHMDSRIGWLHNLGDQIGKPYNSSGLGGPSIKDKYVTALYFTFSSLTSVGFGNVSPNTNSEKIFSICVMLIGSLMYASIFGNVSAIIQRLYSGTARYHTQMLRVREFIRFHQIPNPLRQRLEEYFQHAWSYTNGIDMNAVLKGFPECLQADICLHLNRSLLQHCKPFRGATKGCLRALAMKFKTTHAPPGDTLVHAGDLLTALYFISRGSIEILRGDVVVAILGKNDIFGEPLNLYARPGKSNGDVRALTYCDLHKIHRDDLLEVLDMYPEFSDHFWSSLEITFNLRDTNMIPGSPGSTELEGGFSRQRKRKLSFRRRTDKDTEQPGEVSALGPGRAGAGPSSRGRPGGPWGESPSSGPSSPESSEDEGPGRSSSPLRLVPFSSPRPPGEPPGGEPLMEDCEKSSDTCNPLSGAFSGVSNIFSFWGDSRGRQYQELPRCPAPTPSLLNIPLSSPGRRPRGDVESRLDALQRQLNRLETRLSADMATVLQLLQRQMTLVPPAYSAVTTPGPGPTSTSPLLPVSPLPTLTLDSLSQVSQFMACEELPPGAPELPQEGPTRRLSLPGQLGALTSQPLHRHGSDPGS

[7] = Efflux ratio of apparent permeability from basolateral to apical over apical to basolateral side in MDCK-MDR1 cells at 5 uM after 60 mins by LC-MS/MS analysis; conditions: dog
Cytochrome P450 3A4 = Cytochrome P450 3A4 (Homo sapiens, UniProt P08684); experiment: Inhibition of CYP3A4 in human liver microsomes using midazolam as substrate measured after 7 mins in presence of NADPH by LC-MS/MS analysis
Chain of Cytochrome P450 3A4 (P08684 whole entry): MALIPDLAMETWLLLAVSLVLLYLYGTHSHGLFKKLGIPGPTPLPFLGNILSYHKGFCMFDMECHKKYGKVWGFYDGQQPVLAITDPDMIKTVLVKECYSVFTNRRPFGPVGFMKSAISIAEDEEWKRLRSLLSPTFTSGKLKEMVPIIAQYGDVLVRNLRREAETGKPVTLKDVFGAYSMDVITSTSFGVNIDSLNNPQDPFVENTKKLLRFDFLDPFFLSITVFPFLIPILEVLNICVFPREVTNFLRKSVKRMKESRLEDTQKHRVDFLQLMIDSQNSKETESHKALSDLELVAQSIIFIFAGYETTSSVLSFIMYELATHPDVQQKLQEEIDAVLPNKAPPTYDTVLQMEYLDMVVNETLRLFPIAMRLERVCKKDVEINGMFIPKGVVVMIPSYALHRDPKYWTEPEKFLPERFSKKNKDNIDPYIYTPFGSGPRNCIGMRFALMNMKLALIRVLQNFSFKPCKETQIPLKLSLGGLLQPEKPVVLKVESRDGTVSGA

[8] = Intrinsic clearance in rat liver microsomes at 1 uM assessed per mg protein at 37 degC up to 30 mins in presence of NADPH by HPLC-MS analysis; type: ADME, microsome; conditions: read-out: CLH
[9] = Apparent permeability from apical to basolateral side in MDCK-MDR1 cells monolayer at 5 uM after 60 mins by LC-MS/MS analysis; conditions: dog
Cytochrome P450 2C19 = Cytochrome P450 2C19 (Homo sapiens, UniProt P33261); experiment: Inhibition of CYP2C19 in human liver microsomes using S-mephenytoin as substrate measured after 10 mins in presence of NADPH by LC-MS/MS analysis
Chain of Cytochrome P450 2C19 (P33261 whole entry): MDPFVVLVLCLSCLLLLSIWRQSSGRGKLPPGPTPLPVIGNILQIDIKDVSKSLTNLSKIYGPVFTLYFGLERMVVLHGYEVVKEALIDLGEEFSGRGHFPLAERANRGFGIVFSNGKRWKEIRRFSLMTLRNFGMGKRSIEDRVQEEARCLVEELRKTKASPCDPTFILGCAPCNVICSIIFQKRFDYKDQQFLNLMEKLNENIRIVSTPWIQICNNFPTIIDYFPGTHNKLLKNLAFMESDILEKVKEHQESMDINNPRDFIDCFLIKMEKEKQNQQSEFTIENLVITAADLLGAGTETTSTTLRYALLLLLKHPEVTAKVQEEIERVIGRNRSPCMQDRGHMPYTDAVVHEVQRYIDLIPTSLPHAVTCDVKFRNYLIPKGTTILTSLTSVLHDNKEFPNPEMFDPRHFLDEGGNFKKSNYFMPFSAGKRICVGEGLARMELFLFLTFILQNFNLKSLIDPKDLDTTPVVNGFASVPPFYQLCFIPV

Cytochrome P450 2D6 = Cytochrome P450 2D6 (Homo sapiens, UniProt P10635); experiment: Inhibition of CYP2D6 in human liver microsomes using dextromethorphan as substrate measured after 10 mins in presence of NADPH by LC-MS/MS analysis
Chain of Cytochrome P450 2D6 (P10635 whole entry): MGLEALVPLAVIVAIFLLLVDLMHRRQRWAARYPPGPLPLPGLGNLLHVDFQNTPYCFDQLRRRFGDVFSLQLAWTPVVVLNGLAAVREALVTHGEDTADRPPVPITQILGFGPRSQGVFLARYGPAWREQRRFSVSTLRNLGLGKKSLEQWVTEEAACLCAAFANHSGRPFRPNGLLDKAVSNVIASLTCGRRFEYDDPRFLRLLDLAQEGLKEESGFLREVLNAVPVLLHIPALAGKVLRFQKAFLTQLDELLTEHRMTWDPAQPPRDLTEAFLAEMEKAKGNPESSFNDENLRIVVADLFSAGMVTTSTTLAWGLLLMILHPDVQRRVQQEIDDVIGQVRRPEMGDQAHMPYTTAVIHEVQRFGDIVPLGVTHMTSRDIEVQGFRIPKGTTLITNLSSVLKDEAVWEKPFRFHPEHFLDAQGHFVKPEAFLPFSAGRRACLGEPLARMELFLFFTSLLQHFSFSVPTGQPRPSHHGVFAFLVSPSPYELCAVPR

Row | Structure (SMILES) | IC50 [1] [nM] | IC50 [2] [nM] | IC50 [3] [nM] | other results
1 | CS(=O)(=O)c1ccc(-c2cccc(F)c2)c(C(=O)N2Cc3cn(-c4ccccc4F)nc3C2)c1 | 10 | > 10000 | 12 | 
2 | CC(C)Oc1ccc(C#N)cc1C(=O)N1Cc2cn(-c3cncc(F)c3)nc2C1 | 113 | > 10000 | 183 | 
3 | Cc1cc(-n2cc3c(n2)CN(C(=O)c2cc(S(C)(=O)=O)ccc2N2CCC(F)(F)CC2)C3)ccn1 | 7 | > 10000 | 4 | 
4 | CC(C)S(=O)(=O)c1ccc(O[C@@H](C)C(F)(F)F)c(C(=O)N2Cc3cn(-c4ccccc4)nc3C2)c1 | 406 | > 10000 | 79 | IC50 (Cytochrome P450 1A2): > 10000 nM; microsomal CLint at 1 µM [4]: 10 µL/min/mg; Papp B→A at 1 h, 5 µM [5]: 123 ×10⁻⁶ cm/s; IC50 (Cytochrome P450 2C9): > 10000 nM; IC50 [6]: > 10000 nM; efflux ratio at 1 h, 5 µM [7]: 2.2; IC50 (Cytochrome P450 3A4): > 10000 nM; microsomal CLint at 1 µM [8]: 1.8 µL/min/mg; Papp A→B at 1 h, 5 µM [9]: 56.6 ×10⁻⁶ cm/s; IC50 (Cytochrome P450 2C19): > 10000 nM; IC50 (Cytochrome P450 2D6): > 10000 nM
5 | CS(=O)(=O)c1ccc(N2CCC(F)(F)CC2)c(C(=O)N2Cc3cn(-c4ccccc4F)nc3C2)c1 |  | > 10000 | 12 | 
6 | CC(C)Oc1ccc(S(C)(=O)=O)cc1C(=O)N1Cc2cn(-c3ccccc3F)nc2C1 | 23 | > 10000 | 18 | 
7 | Cc1cc(-n2cc3c(n2)CN(C(=O)c2cc(C#N)ccc2N2CCC(F)(F)CC2)C3)ccn1 |  | > 10000 | 4 | 
8 | CC(C)Oc1ccc(C#N)cc1C(=O)N1Cc2cn(-c3ccccc3)nc2C1 | 105 | > 10000 | 161 | 
9 | N#Cc1ccc(-c2cccc(F)c2)c(C(=O)N2Cc3cn(-c4cncc(F)c4)nc3C2)c1 |  | > 10000 | 619 | 
10 | Cc1cc(-n2cc3c(n2)CN(C(=O)c2cc(C#N)ccc2-c2cccc(F)c2)C3)ccn1 | 55 | > 10000 | 78 | 

More lines, in order of falling IC50 [3], values ahead:

Row | IC50 [1] [nM] | IC50 [2] [nM] | IC50 [3] [nM] | Structure (SMILES) | other results
11 | 210 |  | 331 | C[C@H](Oc1ccc(C#N)cc1C(=O)N1Cc2cn(C3CCCC3)nc2C1)C(F)(F)F | 
12 | 18 | > 10000 | 27 | Cc1cc(-n2cc3c(n2)CN(C(=O)c2cc(C#N)ccc2O[C@@H](C)C(F)(F)F)C3)ccn1 | 
13 | 23 | > 10000 | 12 | Cc1cccc(-n2cc3c(n2)CN(C(=O)c2cc(S(C)(=O)=O)ccc2O[C@@H](C)C(F)(F)F)C3)c1 | 
14 | 6 | > 10000 | 10 | CS(=O)(=O)c1ccc(-c2cccc(F)c2)c(C(=O)N2Cc3cn(-c4cncc(F)c4)nc3C2)c1 | 
15 |  | > 10000 | 10 | CS(=O)(=O)c1ccc(N2CCC(F)(F)CC2)c(C(=O)N2Cc3cn(-c4cncc(F)c4)nc3C2)c1 | 
16 | 29 | > 10000 | 9 | CCS(=O)(=O)c1ccc(O[C@@H](C)C(F)(F)F)c(C(=O)N2Cc3cn(-c4ccccc4F)nc3C2)c1 | IC50 (Cytochrome P450 1A2): > 10000 nM; microsomal CLint at 1 µM [4]: 0.9 µL/min/mg; Papp B→A at 1 h, 5 µM [5]: 51.9 ×10⁻⁶ cm/s; IC50 (Cytochrome P450 2C9): > 10000 nM; IC50 [6]: > 10000 nM; efflux ratio at 1 h, 5 µM [7]: 2.9; IC50 (Cytochrome P450 3A4): > 10000 nM; Papp A→B at 1 h, 5 µM [9]: 18 ×10⁻⁶ cm/s; IC50 (Cytochrome P450 2C19): > 10000 nM; IC50 (Cytochrome P450 2D6): > 10000 nM
17 | 27 | > 10000 | 8 | CCS(=O)(=O)c1ccc(O[C@@H](C)C(F)(F)F)c(C(=O)N2Cc3cn(-c4cncc(F)c4)nc3C2)c1 | IC50 (Cytochrome P450 1A2): > 10000 nM; microsomal CLint at 1 µM [4]: 1.3 µL/min/mg; Papp B→A at 1 h, 5 µM [5]: 99 ×10⁻⁶ cm/s; IC50 (Cytochrome P450 2C9): > 10000 nM; IC50 [6]: > 10000 nM; efflux ratio at 1 h, 5 µM [7]: 17.2; IC50 (Cytochrome P450 3A4): > 10000 nM; microsomal CLint at 1 µM [8]: 5.4 µL/min/mg; Papp A→B at 1 h, 5 µM [9]: 5.8 ×10⁻⁶ cm/s; IC50 (Cytochrome P450 2C19): > 10000 nM; IC50 (Cytochrome P450 2D6): > 10000 nM
18 | 12 | > 10000 | 4 | CCS(=O)(=O)c1ccc(O[C@@H](C)C(F)(F)F)c(C(=O)N2Cc3cn(-c4ccnc(C)c4)nc3C2)c1 | 
19 | 12 | > 10000 | 3 | Cc1cc(-n2cc3c(n2)CN(C(=O)c2cc(S(C)(=O)=O)ccc2O[C@@H](C)C(F)(F)F)C3)ccn1 | 
20 | 4 | > 10000 | 2 | Cc1cc(-n2cc3c(n2)CN(C(=O)c2cc(S(C)(=O)=O)ccc2-c2cccc(F)c2)C3)ccn1 | 
